Some test systems named below: OVCAR-5 ovarian; CAKI-1 renal; SK-MEL-2 melanoma; NCI-H522 lung; UACC-62 melanoma; MALME-3M melanoma; 786-0 renal; HT29 colon; ACHN renal; U251 CNS.
Experiment in all cases: DTP human tumour cell line panel, 48 h

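Where inhibition never reached the appropriate level, the endpoint shown equals the highest concentration tested. Otherwise, values were interpolated linearly from a five-concentration, 48-hour dose response in 96-well plates. Here, GI50 denotes the concentration required for 50% inhibition of growth. The concentration for full growth arrest is given as TGI.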 Some results are limits rather than exact numbers.

The term GI50 denotes the concentration at which growth is held to half of that of the control. The TGI is the concentration at which net growth stops. Low values mean more potent growth arrest, high ones less potent growth arrest. As for `CC1=C(C(=O)Nc2ccc(F)c(Cl)c2)C(c2ccc(Cl)cc2)NC(=O)N1` (centres undefined), the GI50 was 19.5 µM in the assay on OVCAR-5 ovarian; 21 µM in the assay with CAKI-1 renal; 19.1 µM in the assay with SK-MEL-2 melanoma; 17.8 µM in the assay with NCI-H522 lung; 14.1 µM in the assay with UACC-62 melanoma; 16.8 µM in the assay on MALME-3M melanoma. For the same compound, the GI50 in the assay with 786-0 renal is 16.5 µM; in the assay on HT29 colon, 14.3 µM; in the assay with ACHN renal it was 22 µM; in the assay with U251 CNS, 16.7 µM. Further, the total growth inhibition concentration (TGI) with OVCAR-5 ovarian is 42.9 µM; in the assay with CAKI-1 renal, 71.2 µM; in the assay on SK-MEL-2 melanoma, 35.3 µM; with NCI-H522 lung it was 34.9 µM; in the assay with UACC-62 melanoma, 27.2 µM; in the assay with MALME-3M melanoma it was 38.5 µM. For the same compound, the TGI is 31.7 µM in the assay with 786-0 renal, 27.8 µM with HT29 colon, 63 µM with ACHN renal and 33.2 µM in the assay with U251 CNS.
As for `NC1CCC(Nc2nc(NCc3ccc(-c4ccco4)nc3)c3ncn(C4CCCC4)c3n2)CC1` (centres undefined), the GI50 in the assay with OVCAR-5 ovarian was 0.0324 µM; in the assay with CAKI-1 renal, 2.86 µM; in the assay with SK-MEL-2 melanoma, 0.034 µM; with NCI-H522 lung it was 0.0164 µM; in the assay on UACC-62 melanoma, 0.0377 µM; with MALME-3M melanoma, 0.035 µM. Further, the 50% growth inhibitory concentration (GI50) was 0.0732 µM in the assay with 786-0 renal, 0.00801 µM in the assay on HT29 colon, 0.242 µM with ACHN renal and 0.0344 µM in the assay on U251 CNS. Moreover, the TGI came to 14.1 µM in the assay with OVCAR-5 ovarian; 12.6 µM with CAKI-1 renal; 0.145 µM with SK-MEL-2 melanoma; 0.0737 µM in the assay on NCI-H522 lung; 0.223 µM in the assay on UACC-62 melanoma; 0.212 µM in the assay with MALME-3M melanoma. Also, the TGI in the assay with 786-0 renal was found to be 1.8 µM; in the assay on U251 CNS, 12.6 µM.
Regarding `CSc1ccccc1C#C/C=C\C#Cc1ccccc1N1CCCC1=O`, the GI50 with OVCAR-5 ovarian is greater than 24.2 µM; in the assay on CAKI-1 renal, greater than 10.3 µM; in the assay with 786-0 renal it was greater than 22 µM; in the assay on HT29 colon, greater than 10.4 µM; with ACHN renal, greater than 22.9 µM; in the assay with U251 CNS, greater than 11 µM. Besides, the concentration for total growth inhibition (TGI) in the assay on OVCAR-5 ovarian, in the assay with CAKI-1 renal, in the assay on SK-MEL-2 melanoma, in the assay on NCI-H522 lung, in the assay on UACC-62 melanoma and with MALME-3M melanoma was greater than 50 µM each time. Besides, the concentration for total growth inhibition (TGI) in the assay with 786-0 renal, in the assay on HT29 colon, in the assay with ACHN renal and in the assay with U251 CNS was greater than 50 µM in each case.
With `O=C(NCCNc1nccc(-c2c(-c3cccc(O)c3)nc3sccn23)n1)c1ccccc1O`, the GI50 is 13.3 µM with OVCAR-5 ovarian; 3.23 µM in the assay with CAKI-1 renal; 1.59 µM in the assay on SK-MEL-2 melanoma; 4.24 µM in the assay with NCI-H522 lung; 0.181 µM with UACC-62 melanoma; 0.152 µM in the assay on MALME-3M melanoma. In addition, the GI50 in the assay on 786-0 renal is 6.25 µM; in the assay on HT29 colon, 3.61 µM; in the assay with ACHN renal, 3.35 µM; in the assay with U251 CNS, 4.9 µM. For the same compound, the TGI with OVCAR-5 ovarian came to 65.3 µM; in the assay with CAKI-1 renal, 21.8 µM; in the assay on SK-MEL-2 melanoma, 6.09 µM; with NCI-H522 lung it was 16.9 µM; in the assay with UACC-62 melanoma it was 4.91 µM; in the assay on MALME-3M melanoma, 18.7 µM. Also, the concentration for total growth inhibition (TGI) in the assay with 786-0 renal is 43.1 µM; in the assay with HT29 colon it was 20.7 µM; in the assay on ACHN renal, greater than 53.4 µM; in the assay on U251 CNS, greater than 47.6 µM.
As to `CC1=C(C(=O)Nc2ccccc2C)C(c2ccco2)C(C(=O)Nc2ccccc2C)=C(C)N1C`, the TGI in the assay on OVCAR-5 ovarian, with CAKI-1 renal, in the assay with SK-MEL-2 melanoma, with NCI-H522 lung, in the assay on UACC-62 melanoma and in the assay on MALME-3M melanoma was greater than 100 µM each time. In addition, the concentration for total growth inhibition (TGI) with 786-0 renal, in the assay with HT29 colon, with ACHN renal and in the assay with U251 CNS was greater than 100 µM throughout.
Take `O=C1c2ccccc2C(=O)c2sc(Nc3cccc(Cl)c3)nc21`: the concentration for total growth inhibition (TGI) was determined as 4.78 µM with OVCAR-5 ovarian; 4.97 µM with CAKI-1 renal; 3.79 µM in the assay on SK-MEL-2 melanoma; 3.09 µM in the assay with NCI-H522 lung; 3.25 µM with UACC-62 melanoma; 2.69 µM in the assay on MALME-3M melanoma. Moreover, the TGI with 786-0 renal came to 3.74 µM; in the assay on HT29 colon, 8.36 µM; with ACHN renal, 3.03 µM; with U251 CNS, 2.97 µM.
As for `COc1cc(C(=O)/C=C/c2sc(Cl)nc2Cl)cc(OC)c1OC`, the GI50 was 1.72 µM with OVCAR-5 ovarian; 1.61 µM in the assay on CAKI-1 renal; 2.39 µM with SK-MEL-2 melanoma; 1.68 µM in the assay with NCI-H522 lung; 1.86 µM in the assay with UACC-62 melanoma; 1.59 µM in the assay on MALME-3M melanoma. In addition, the GI50 in the assay with 786-0 renal is 1.84 µM; with HT29 colon, 2.21 µM; in the assay with ACHN renal it was 1.74 µM; in the assay with U251 CNS it was 1.88 µM. For the same compound, the TGI came to 3.27 µM in the assay with OVCAR-5 ovarian; 2.99 µM in the assay with CAKI-1 renal; 5.86 µM in the assay on SK-MEL-2 melanoma; 3.96 µM in the assay with NCI-H522 lung; 3.61 µM with UACC-62 melanoma; 3.14 µM in the assay with MALME-3M melanoma. In addition, the TGI is 3.42 µM with 786-0 renal, 5.53 µM in the assay with HT29 colon, 3.12 µM in the assay with ACHN renal and 3.69 µM with U251 CNS.
Take `Fc1ccc(Nc2ncnc3ccc(-c4cnc5[nH]ccc5c4)cc23)cc1Cl`: the GI50 with OVCAR-5 ovarian is 2.13 µM; with CAKI-1 renal, 0.502 µM; in the assay on SK-MEL-2 melanoma it was 16.6 µM; in the assay with NCI-H522 lung it was 12.6 µM; in the assay with UACC-62 melanoma, 6.06 µM; with MALME-3M melanoma, 2.05 µM. In addition, the GI50 was 1.57 µM in the assay on 786-0 renal, 2.05 µM in the assay with HT29 colon, 0.602 µM with ACHN renal and 2.17 µM in the assay with U251 CNS. In addition, the total growth inhibition concentration (TGI) in the assay on OVCAR-5 ovarian is 10.6 µM; with CAKI-1 renal, 19.5 µM; in the assay with SK-MEL-2 melanoma it was 68.2 µM; with NCI-H522 lung it was 69.1 µM; in the assay with UACC-62 melanoma, 63.3 µM; with MALME-3M melanoma, 7.84 µM. The total growth inhibition concentration (TGI) with 786-0 renal was 3.27 µM; in the assay on HT29 colon, greater than 25.1 µM; in the assay with ACHN renal, 2.49 µM; with U251 CNS, 6.2 µM.

The values are drawn from PubChem BioAssay (NCI).
